Test results from patent US20070128217A1 (priority 2003, published 2007).

What was measured:
[1] = test system: antibodies in sera from SARS patients (sera 1a, 1b, 2, 6, 37, 62, London, SARS-yellow, SARS-green); format: binding, human; parameters: Binding of serum 6 to linear peptides of protein X1 of SARS-CoV Urbani / Binding of serum 37 to linear peptides of protein X1 of SARS-CoV Urbani / Binding of serum 6 to looped/cyclic peptide (PEPSCAN-ELISA) / Binding of serum 37 to looped/cyclic peptide (PEPSCAN-ELISA) / Binding of serum 37 to looped/cyclic peptides of protein X1 of SARS-CoV Urbani / Binding of serum 6 to linear peptides of protein X2 / Binding of serum 37 to linear peptides of protein X2 / Binding of serum 37 to looped/cyclic peptides of protein X2 of SARS-CoV Urbani / Binding of serum 6 to linear peptides of protein M of SARS-CoV Urbani / Binding of serum 37 to linear peptides of protein M of SARS-CoV Urbani / Binding of serum 6 to looped/cyclic peptides of protein M of SARS-CoV Urbani / Binding of serum 37 to looped/cyclic peptides of protein M of SARS-CoV Urbani / Binding of serum 6 to linear peptides of protein X3 of SARS-CoV Urbani / Binding of serum 37 to linear peptides of protein X3 of SARS-CoV Urbani / Binding of serum 37 to looped/cyclic peptides of protein X3 of SARS-CoV Urbani / Binding of serum 6 to linear peptides of protein X4 of SARS-CoV Urbani / Binding of serum 37 to linear peptides of protein X4 of SARS-CoV Urbani / Binding of serum 37 to looped/cyclic peptides of protein X4 of SARS-CoV Urbani / Binding of serum 6 to linear peptides of protein X5 of SARS-CoV Urbani / Binding of serum 37 to linear peptides of protein X5 of SARS-CoV Urbani / Binding of serum 37 to looped/cyclic peptides of protein X5 of SARS-CoV Urbani / Binding of serum 6 to linear peptides of protein N of SARS-CoV Urbani / Binding of serum 37 to linear peptides of protein N of SARS-CoV Urbani / Binding of serum 6 to linear peptide (PEPSCAN-ELISA) / Binding of serum 1a to looped/cyclic peptides of protein N of SARS-CoV Urbani / Binding of serum 1b to looped/cyclic peptides of protein N of SARS-CoV Urbani / Binding of serum 2 to looped/cyclic peptides of protein N of SARS-CoV Urbani / Binding of serum 6 to looped/cyclic peptides of protein N of SARS-CoV Urbani / Binding of serum 37 to looped/cyclic peptides of protein N of SARS-CoV Urbani / Binding of serum 62 to looped/cyclic peptides of protein N of SARS-CoV Urbani / Binding of serum London to looped/cyclic peptides of protein N of SARS-CoV Urbani / Binding of serum SARS-green to looped/cyclic peptides of protein N of SARS-CoV Urbani: unit not given here
[2] = test system: control sera (pooled serum of ten healthy LUMC hospital workers; commercial negative donor pooled serum from the Dutch bloodbank); format: binding, human; parameters: Binding of Control serum LUMC to linear peptides / Binding of Control serum Blood-bank to linear peptides / Binding of Control serum LUMC to looped peptides / Binding of Control Serum Blood-Bank to Looped peptides / Binding of Control serum LUMC to linear peptides of the protein M of SARS-CoV Urbani / Binding of Control serum Blood-bank to linear peptides of the protein M of SARS-CoV Urbani / Binding of Control serum LUMC to looped peptides of the protein M of SARS-CoV Urbani / Binding of Control Serum Blood-Bank to Looped peptides of the protein M of SARS-CoV Urbani: unit not given here
[3] = test system: rabbit serum obtained by immunizing a rabbit with the SARS-CoV strain Frankfurt 1; format: binding; parameters: Binding of a rabbit serum to linear peptides / Binding of a rabbit serum to looped peptides / Rabbit serum linear peptides / Rabbit serum looped peptides / Binding of a rabbit serum to linear peptides of protein N of SARS-CoV Urbani (Rabbit serum linear peptides) / Binding of a rabbit serum to looped/cyclic peptides of protein N of SARS-CoV Urbani (Rabbit serum looped peptides): unit not given here
[4] = test system: recombinant human anti-SARS-CoV antibody 03-018; format: binding; parameters: Binding of antibody 03-018 to linear peptides of the N protein of SARS-CoV Urbani / Binding of antibody 03-018 to looped/cyclic peptides of the N protein of SARS-CoV Urbani: unit not given here

Sequence	Binding of serum 1a to looped/cyclic peptides of protein N of SARS-CoV Urbani [1]	Binding of serum 1b to looped/cyclic peptides of protein N of SARS-CoV Urbani [1]	Binding of serum 2 to looped/cyclic peptides of protein N of SARS-CoV Urbani [1]	Binding of serum 6 to looped/cyclic peptides of protein N of SARS-CoV Urbani [1]	Binding of serum 37 to looped/cyclic peptides of protein N of SARS-CoV Urbani [1]	Binding of serum 62 to looped/cyclic peptides of protein N of SARS-CoV Urbani [1]	Binding of serum London to looped/cyclic peptides of protein N of SARS-CoV Urbani [1]	Binding of serum SARS-green to looped/cyclic peptides of protein N of SARS-CoV Urbani [1]	Binding of serum SARS-yellow to looped/cyclic peptides of protein N of SARS-CoV Urbani [1]	Binding of a rabbit serum to linear peptides of protein N of SARS-CoV Urbani (Rabbit serum linear peptides) [3]	Binding of a rabbit serum to looped/cyclic peptides of protein N of SARS-CoV Urbani (Rabbit serum looped peptides) [3]	Binding of antibody 03-018 to linear peptides of the N protein of SARS-CoV Urbani [4]	Binding of antibody 03-018 to looped/cyclic peptides of the N protein of SARS-CoV Urbani [4]	Binding of serum 1a to linear peptide (PEPSCAN-ELISA) [1]	Binding of serum 1b to linear peptide (PEPSCAN-ELISA) [1]	Binding of serum 2 to linear peptide (PEPSCAN-ELISA) [1]	Binding of serum 6 to linear peptide (PEPSCAN-ELISA) [1]	Binding of serum 37 to linear peptide (PEPSCAN-ELISA) [1]	Binding of serum 62 to linear peptide (PEPSCAN-ELISA) [1]	Binding of serum London to linear peptide (PEPSCAN-ELISA) [1]	other results
AADMDDFSRQLQNSM	0.3	0.2	0.3	1.6	0.5	0.3	0.2	0.2	0.2	0.2	0.3	0.2	0.2								Binding of serum 1a to linear peptides of protein N of SARS-CoV Urbani [1]: 0.3; Binding of serum 1b to linear peptides of protein N of SARS-CoV Urbani [1]: 0.2; Binding of serum 2 to linear peptides of protein N of SARS-CoV Urbani [1]: 0.2; Binding of serum 6 to linear peptides of protein N of SARS-CoV Urbani [1]: 1.2; Binding of serum 37 to linear peptides of protein N of SARS-CoV Urbani [1]: 0.7; Binding of serum 62 to linear peptides of protein N of SARS-CoV Urbani [1]: 0.6; Binding of serum London to linear peptides of protein N of SARS-CoV Urbani [1]: 0.7; Binding of serum SARS-green to linear peptides of protein N of SARS-CoV Urbani [1]: 0.4; Binding of serum SARS-yellow to linear peptides of protein N of SARS-CoV Urbani [1]: 0.7; Control Serum Blood-Bank Looped peptides [2]: 0.4; Control serum Blood-bank linear peptides [2]: 0.8; Control serum LUMC linear peptides [2]: 0.7; Control serum LUMC looped peptides [2]: 0.3
AEASKKPRQKRTATK	0.2	0.1	0.2	0.1	0.4	0.3	0.3	0.1	0.2	0.2	0.1	0.1	0.2	0.2	0.1	0.2	0.3	0.7	0.7	0.4	Binding of serum SARS-green to linear peptide (PEPSCAN-ELISA) [1]: 0.4; Binding of serum SARS-yellow to linear peptide (PEPSCAN-ELISA) [1]: 0.7; Binding of Control Serum Blood-Bank to Looped peptides [2]: 0.4; Binding of Control serum Blood-bank to linear peptides [2]: 0.8; Binding of Control serum LUMC to linear peptides [2]: 0.8; Binding of Control serum LUMC to looped peptides [2]: 0.4
AEGSRGGSQASSRSS	0.4	0.2	0.4	0.5	0.5	0.5	0.4	0.4	0.4	0.2	0.6	0.1	0.2	0.3	0.2	0.3	0.3	0.7	0.7	0.5	Binding of serum SARS-green to linear peptide (PEPSCAN-ELISA) [1]: 0.4; Binding of serum SARS-yellow to linear peptide (PEPSCAN-ELISA) [1]: 0.6; Binding of Control Serum Blood-Bank to Looped peptides [2]: 0.6; Binding of Control serum Blood-bank to linear peptides [2]: 0.8; Binding of Control serum LUMC to linear peptides [2]: 0.8; Binding of Control serum LUMC to looped peptides [2]: 0.8
